Laboratory results published in patent US20060166867A1, “Novel conjugates of polysaccharides and uses thereof” (priority 2003, published 2006).
In brackets after ≈: the same amount, converted by molar mass. Several values for one entry are separate records, joined by “and”; a condition that tells them apart may be missing. Identical values can stand only once. Like-named read-outs stand apart in the source and are kept apart here.

Columns and labels:
VRE faecium = conditions: clinical isolate, Table 7
[1] = tested on: Enterococcus faecalis B84939-vancomycin^r; test: MIC, broth microdilution; format: cell-based; conditions: Enterococcus faecalis; Gram positive clinical isolate; read-out: Minimum Inhibitory Concentration
P. aeruginosa R17093 = test: MIC, broth microdilution; format: cell-based, Pseudomonas aeruginosa; conditions: Gram negative clinical isolate, read-out: Minimum Inhibitory Concentration
[2] = tested on: Staphylococcus aureus ATCC 24213; test: microbe, parasite or virus in culture; conditions: ATCC24213, read-out: Minimum Inhibitory Concentration
[3] = tested on: Enterococcus faecalis ATCC 29212; test: microbe, parasite or virus in culture; conditions: ATCC29212, read-out: Minimum Inhibitory Concentration
S. aureus MSSA = test: microbe, parasite or virus in culture; conditions: Staphylococcus aureus, read-out: Minimum Inhibitory Concentration
S. aureus MRSA = test: microbe, parasite or virus in culture; conditions: Staphylococcus aureus, read-out: Minimum Inhibitory Concentration
S. epidermidis MSSE = test: microbe, parasite or virus in culture; conditions: Staphylococcus epidermidis, read-out: Minimum Inhibitory Concentration
[4] = tested on: Escherichia coli ATCC 25922; test: microbe, parasite or virus in culture; conditions: ATCC25922, read-out: Minimum Inhibitory Concentration
[5] = tested on: Pseudomonas aeruginosa ATCC 27853; test: microbe, parasite or virus in culture; conditions: ATCC27853, read-out: Minimum Inhibitory Concentration
[6] = tested on: Acinetobacter baumannii ATCC 19606; test: microbe, parasite or virus in culture; conditions: ATCC19606, read-out: Minimum Inhibitory Concentration
[7] = tested on: Moraxella catarrhalis ATCC 25238 (Branhamella); test: microbe, parasite or virus in culture; conditions: ATCC25238, read-out: Minimum Inhibitory Concentration
Enterobacter aerogenes = test: microbe, parasite or virus in culture; conditions: Klebsiella aerogenes, read-out: Minimum Inhibitory Concentration
[8] = tested on: P. aeruginosa-gentamicin^s, meropenem^s; test: microbe, parasite or virus in culture; conditions: Pseudomonas aeruginosa, read-out: Minimum Inhibitory Concentration
[9] = tested on: A. baumannii-amikacin^s, meropenem^s; test: microbe, parasite or virus in culture; conditions: Acinetobacter baumannii, read-out: Minimum Inhibitory Concentration
E. coli U23773^r = test: microbe, parasite or virus in culture; conditions: Escherichia coli, read-out: Minimum Inhibitory Concentration
A. baumannii E11436 = test: MIC, broth microdilution; format: cell-based, Acinetobacter baumannii; conditions: clinical isolate, Table 7
Method: Minimal Inhibition Concentration (MIC) measurements: The Minimal Inhibitory Concentration (MIC) was generally determined by the Broth Microdilution method (based on the protocol described in Clinical and Laboratory Standard Institute (CLSI) NCCLS (2003) M7-A6), as follows:
A stock solution of each of the tested compounds was prepared by diluting the compound to a 2,560 μg/ml concentration with an appropriate solvent. The stock solution was then serially 2-fold diluted in 96-well microdilution trays using Cation-Adjusted Mueller-Hinton Broth (CAMHB) until reaching the desired range of concentrations, whereas each well contained double the final working concentration. Each row further had one growth control well (medium+inoculum only), and one sterility control well (medium+tested compound). Plates were stored at −70° C. until used.
The tested microorganisms were used as fresh overnight cultures on blood agar (for gram-positive organisms) or MacConkey agar (for gram-negatives). A standardized inoculum suspension was prepared by the direct colony suspension method, using sterile saline (equivalent to a 0.5 McFarland standard).
Thus, 50 μl of the inoculum suspension were added to each tested well (except for the sterility control well), and […] was performed during 18-24 hours (depending on the tested microorganism or compound) at 35° C.

Compound: CC(=O)N[C@H](CCCNC(=N)N)C(=O)N[C@H](CCCNC(=N)N)C(=O)N[C@H](CCCNC(=N)N)C(=O)N[C@H](CCCNC(=N)N)C(=O)N[C@H](CCCNC(=N)N)C(=O)N[C@H](CCCNC(=N)N)C(=O)N[C@H](CCCNC(=N)N)C(=O)N[C@H](CCCNC(=N)N)C(=O)N[C@H](CCCNC(=N)N)C(=O)O [Compound 12, D-Arg-9-mer-NHAc]
- Minimum Inhibitory Concentration (VRE faecium): > 128.0 mg/L

Compound: NCC1OC(OC2C(CO)OC(OC3C(O)C(N)CC(N)C3OC3OC(CN)C(O)C(O)C3N)C2O)C(N)C(O)C1O (stereo not drawn) [Neomycin]
- MIC [1]: 64 µg/mL and 70.4 µM
- MIC (P. aeruginosa R17093): 211.22 µM (≈ 130 µg/mL)
- MIC (P. aeruginosa R17093; Pseudomonas aeruginosa, R17093): 211 µM and 192 µg/mL
- MIC [2]: 1.5 µg/mL and 1.65 µM
- MIC [3]: 128 µg/mL and 141 µM
- MIC (S. aureus MSSA): 1 µg/mL and 1.1 µM
- MIC (S. aureus MRSA): 1 µg/mL and 1.1 µM
- MIC (S. epidermidis MSSE): 0.5 µg/mL and 0.55 µM
- MIC [4]: 1 µg/mL and 1.1 µM
- MIC [5]: 128 µg/mL and 141 µM
- MIC [6]: 6 µg/mL and 6.6 µM
- MIC [7]: 0.25 µg/mL and 0.28 µM
- MIC (Enterobacter aerogenes): 0.7 µg/mL and 0.77 µM
- MIC [8]: 16 µg/mL and 17.6 µM
- MIC [9]: 3 µg/mL and 3.3 µM
- MIC (E. coli U23773^r): 141 µM and 128 µg/mL

Compound: D-Arg-9-mer-neomycin [Compound 14]
- Minimum Inhibitory Concentration (A. baumannii E11436): 64.0 mg/L
